Article PMC5469811, “Identification of GXXXXG motif in Chrysophsin-1 and its implication in the design of analogs with cell-selective antimicrobial and anti-endotoxin activities” (Scientific Reports, 2017)
In brackets after ≈: the same amount, converted by molar mass. Residues, ends and D or L forms follow the SMILES beside them.

Tests used:
[1] = test system: Bacillus subtilis (ATCC 6633); test: microbe, parasite or virus in culture; assay type: cell-based; details: ATCC 6633; read-out: Minimum inhibitory concentration (MIC)
Procedure: (§1) Antibacterial assay against various Gram-positive and Gram-negative strains of bacteria was performed by the serial two-fold dilution method according to the previously reported procedure, [36]. The antibacterial assays were repeated thrice and the averages of these MIC values were reported.

[2] = test system: Escherichia coli (ATCC 25922); test: microbe, parasite or virus in culture; assay type: cell-based; details: ATCC 25922; read-out: Minimum inhibitory concentration (MIC)
Procedure: as §1

[3] = test system: Escherichia coli (ATCC 9637); test: microbe, parasite or virus in culture; assay type: cell-based; details: ATCC 9637; read-out: Minimum inhibitory concentration (MIC)
Procedure: as §1

[4] = test system: Klebsiella pneumoniae (ATCC 27736); test: microbe, parasite or virus in culture; assay type: cell-based; details: ATCC 27736; read-out: Minimum inhibitory concentration (MIC)
Procedure: as §1

[5] = test system: Pseudomonas aeruginosa (ATCC BAA-427); test: microbe, parasite or virus in culture; assay type: cell-based; details: ATCC BAA-427; read-out: Minimum inhibitory concentration (MIC)
Procedure: as §1

[6] = test system: Staphylococcus aureus (ATCC 25923); test: microbe, parasite or virus in culture; assay type: cell-based; details: ATCC 25923; read-out: Minimum inhibitory concentration (MIC)
Procedure: as §1

[7] = test system: Staphylococcus aureus (ATCC 29213); test: microbe, parasite or virus in culture; assay type: cell-based; details: ATCC 29213; read-out: Minimum inhibitory concentration (MIC)
Procedure: as §1

[8] = test system: Staphylococcus aureus (ATCC 33592) Methicillin resistant Genatmicin resistant; test: microbe, parasite or virus in culture; assay type: cell-based; details: ATCC 33592; read-out: Minimum inhibitory concentration (MIC)
Procedure: as §1

[9] = test system: Staphylococcus aureus (ATCC 700698 MRSA); test: microbe, parasite or virus in culture; assay type: cell-based; details: ATCC 700698; read-out: Minimum inhibitory concentration (MIC)
Procedure: as §1

[10] = test system: Staphylococcus aureus (ATCC 700699 MRSA); test: microbe, parasite or virus in culture; assay type: cell-based; details: ATCC 700699; read-out: Minimum inhibitory concentration (MIC)
Procedure: as §1

[11] = test system: Staphylococcus aureus (BAA-44)MDR; test: microbe, parasite or virus in culture; assay type: cell-based; details: BAA-44; read-out: Minimum inhibitory concentration (MIC)
Procedure: as §1

[12] = test system: Candida albicans (ATCC 10231); test: microbe, parasite or virus in culture; assay type: cell-based; details: ATCC 10231, 48 h; read-out: Minimum inhibitory concentration (MIC)
Procedure: (§2) The anti- fungal activity of peptides was performed according to the standard micro broth dilution technique as per NCCLS guidelines. These plates were incubated in a moist chamber at 35 °C, and an absorbance at 492 nm was recorded on a VersaMax microplate reader after 48 h for C. albicans ATCC 10231 and C. parapsilosis ATCC 22019 and 72 h for C. neoformans.

[13] = test system: Candida parapsilosis (ATCC 22019); test: microbe, parasite or virus in culture; assay type: cell-based; details: ATCC 22019, 48 h; read-out: Minimum inhibitory concentration (MIC)
Procedure: as §2

[14] = test system: Cryptococcus neoformans; test: microbe, parasite or virus in culture; assay type: cell-based; details: 72 h; read-out: Minimum inhibitory concentration (MIC)
Procedure: as §2

[15] = test system: Sporothrix schenckii (Patient isolates); test: microbe, parasite or virus in culture; assay type: cell-based; details: 48 h; read-out: Minimum inhibitory concentration (MIC)
[16] = test system: E. coli (ATCC 25922); assay type: cell-based, Escherichia coli; details: ATCC 25922, 1 h
Procedure: (§3) E. coli ATCC25922 was grown to 10^6 CFU/ml in fresh MH broth with various divalent and monovalent salts at their physiological concentrations. Serial dilutions of chrysophsin-1 and its variants prepared with the same MH broth were added to the E. coli ATCC 25922 suspensions. The bacteria were incubated at 37 °C in a shaking incubator for 18 h and the MIC values of individual peptides against E. coli ATCC 25922 were determined. Thermal tolerance of Chrysophsin-1 and its variants was checked by incubating the peptides at 4 °C, 60 °C and 90 °C for 1 h prior to MIC determination. The antibacterial activity in presence of serum was carried out by adding a final concentration of 10% fetal bovine serum in the assay diluents containing 0.4% BSA, 0.02% glacial acetic acid. The subsequent steps in both the experiments were consistent with the MIC determination method.

[17] = test system: E. coli ATCC 25922; assay type: cell-based, Escherichia coli; details: ATCC 25922, 18 h
Procedure: as §3

[18] = test system: S. aureus (ATCC 25923); assay type: cell-based, Staphylococcus aureus; details: ATCC 25923, 1 h
Procedure: as §3

[19] = test system: E. coli ATCC 25922; test: Synergy with conventional antibiotics, checkerboard titration; assay type: cell-based, Escherichia coli
Procedure: The checkerboard titration method was followed to check the synergy of peptides with other antibiotics. First, 2-fold serial dilutions of the antibiotics and antimicrobial peptides were prepared. Subsequently, 50 μl each of different concentrations of antibiotics and of antimicrobial peptides was mixed and added into 100 μl of log phase bacteria culture in a 96-well plate. The plates were then incubated at 37 °C for 24 h. The fractional inhibitory concentration (FIC) index (FICI) was calculated as follows[39]: FICI=(MICofdrugAincombination)/(MICofdrugAalone)+(MICofdrugBincombination)/(MICofdrugB): FICI < 0.5 is considered to indicate synergy; 0.5 < FICI < 1.0 is considered additive; 1.0 < FICI < 4.0 is considered indifferent; and FICI > 4.0 is considered antagonism.

- MIC [1]: 3 µM (≈ 8.91 µg/mL)
- MIC [2]: 4 µM (≈ 11.9 µg/mL)
- MIC [3]: 6.8 µM (≈ 20.2 µg/mL)
- MIC [4]: 27.2 µM (≈ 80.8 µg/mL)
- MIC [5]: 13.6 µM (≈ 40.4 µg/mL)
- MIC [6]: 3 µM (≈ 8.91 µg/mL)
- MIC [7]: 3 µM (≈ 8.91 µg/mL)
- MIC [8]: 1.6 µM (≈ 4.75 µg/mL)
- MIC [9]: 3 µM (≈ 8.91 µg/mL)
- MIC [10]: 3 µM (≈ 8.91 µg/mL)
- MIC [11]: 3 µM (≈ 8.91 µg/mL)
- MIC [12]: >30 µM
- MIC [13]: >30 µM
- MIC [14]: >30 µM
- MIC [15]: >30 µM
- Antibacterial activity (MIC) after incubating peptide at 4 °C [16]: 4 µM
- Antibacterial activity (MIC) after incubating peptide at 60 °C [16]: 14 µM
- Antibacterial activity (MIC) after incubating peptide at 90 °C [16]: 17.2 µM
- Antibacterial activity (MIC) in the presence of 10% FBS [17]: >33 µM
- Antibacterial activity (MIC) in the presence of FeCl3 [17]: 26 µM
- Antibacterial activity (MIC) in the presence of KCl [17]: 6 µM
- Antibacterial activity (MIC) in the presence of MgCl2 [17]: 20 µM
- Antibacterial activity (MIC) in the presence of NH4Cl [17]: 5 µM
- Antibacterial activity (MIC) in the presence of NaCl [17]: 20 µM
- Antibacterial activity (MIC) in the presence of ZnCl2 [17]: 12 µM
- Antibacterial activity (MIC) after incubating peptide at 4 °C [18]: 3 µM
- Antibacterial activity (MIC) after incubating peptide at 60 °C [18]: >33 µM
- Antibacterial activity (MIC) after incubating peptide at 90 °C [18]: >33 µM
Structure (SMILES): CC[C@H](C)[C@H](NC(=O)[C@H](C)NC(=O)CNC(=O)[C@H](CCCCN)NC(=O)[C@@H](NC(=O)[C@H](CC(C)C)NC(=O)[C@H](Cc1c[nH]c2ccccc12)NC(=O)CNC(=O)[C@H](Cc1ccccc1)NC(=O)[C@@H](N)Cc1ccccc1)[C@@H](C)CC)C(=O)N[C@@H](Cc1c[nH]cn1)C(=O)N[C@@H](C)C(=O)N1CCC[C@H]1C(=O)N[C@@H](CCCCN)C(=O)N[C@@H](C)C(=O)N[C@H](C(=O)N[C@@H](Cc1c[nH]cn1)C(=O)N1CCC[C@H]1C(=O)N[C@@H](CC(C)C)C(=O)N[C@H](C(=O)N[C@@H](Cc1c[nH]cn1)C(=O)N[C@@H](CCCNC(=N)N)C(=O)N[C@@H](CCCNC(=N)N)C(=O)N[C@@H](CCCNC(=N)N)C(=O)N[C@@H](Cc1c[nH]cn1)C(N)=O)[C@@H](C)CC)[C@@H](C)CC [G13,18P-Chr-1] (H-FFGWLIKGAIHAPKAIHPLIHRRRH-NH2; N-terminus and C-terminus assumed)
- interaction of peptide with chloramphenicol (by FICI) [19]: additivity
